The values that follow come from ChEMBL document CHEMBL5537158, “Polymyxins with Potent Antibacterial Activity against Colistin-Resistant Pathogens: Fine-Tuning Hydrophobicity with Unnatural Amino Acids” (J Med Chem, 2024).

Positions of bridges follow the written chain, without caps; N, C: chain ends. Non-standard residues stand in square brackets, D forms with d. Residues, ends and D or L forms follow the SMILES beside them. *: point of attachment. Phe(3,4,5-F3) = N[C@@H](Cc1cc(F)c(F)c(F)c1)C(=O)O; dPhe(3,4,5-F3) = N[C@H](Cc1cc(F)c(F)c(F)c1)C(=O)O; Phe(4-CF3) = N[C@@H](Cc1ccc(C(F)(F)F)cc1)C(=O)O; Phe(4-Br) = N[C@@H](Cc1ccc(Br)cc1)C(=O)O; Phe(4-Cl) = N[C@@H](Cc1ccc(Cl)cc1)C(=O)O; Phe(3-F) = N[C@@H](Cc1cccc(F)c1)C(=O)O; Phe(4-F) = N[C@@H](Cc1ccc(F)cc1)C(=O)O; Phe(2-F) = N[C@@H](Cc1ccccc1F)C(=O)O; d(hhPhe) = N[C@H](CCCc1ccccc1)C(=O)O; dPhe(2-F) = N[C@H](Cc1ccccc1F)C(=O)O; Gly(octyl) = CCCCCCCC[C@H](N)C(=O)O; d(hPhe) = N[C@H](CCc1ccccc1)C(=O)O; hhPhe = N[C@@H](CCCc1ccccc1)C(=O)O; d(hLeu) = CC(C)CC[C@@H](N)C(=O)O; hPhe = N[C@@H](CCc1ccccc1)C(=O)O; dAoc(2) = CCCCCC[C@@H](N)C(=O)O; hLeu = CC(C)CC[C@H](N)C(=O)O; Octanoyl = CCCCCCCC(=O)*; Dab = NCC[C@H](N)C(=O)O

A short description of the series: Hemolytic activity in human RBC at 400 ug/ml after 1 hr. Format: toxicity, cell-based, Erythrocyte. Particulars: red blood cells (erythrocytes), at 400 µg/mL, read-out: Activity.
Take `CCCCCCCC(=O)N[C@@H](CCN)C(=O)N[C@H](C(=O)N[C@@H](CCN)C(=O)N[C@H]1CCNC(=O)[C@H]([C@@H](C)O)NC(=O)[C@H](CCN)NC(=O)[C@H](CCN)NC(=O)[C@H](CCCc2ccccc2)NC(=O)[C@@H](Cc2ccccc2)NC(=O)[C@H](CCN)NC1=O)[C@@H](C)O`: the hemolysis at 1 h, 400 ug/ml was under 10%.
Then `CCCCCCCC(=O)N[C@@H](CCN)C(=O)N[C@H](C(=O)N[C@@H](CCN)C(=O)N[C@H]1CCNC(=O)[C@H]([C@@H](C)O)NC(=O)[C@H](CCN)NC(=O)[C@H](CCN)NC(=O)[C@H](CC(C)C)NC(=O)[C@@H](Cc2ccc(Br)cc2)NC(=O)[C@H](CCN)NC1=O)[C@@H](C)O`, with under 10%.
On to `CCCCCCCC(=O)N[C@@H](CCN)C(=O)N[C@H](C(=O)N[C@@H](CCN)C(=O)N[C@H]1CCNC(=O)[C@H]([C@@H](C)O)NC(=O)[C@H](CCN)NC(=O)[C@H](CCN)NC(=O)[C@H](CCCCCC)NC(=O)[C@@H](Cc2ccccc2)NC(=O)[C@H](CCN)NC1=O)[C@@H](C)O`, for which the hemolysis at 1 h, 400 ug/ml is under 10%.
In the case of `CC(=O)N[C@H](Cc1ccccc1F)C(=O)N[C@@H](CCN)C(=O)N[C@H](C(=O)N[C@@H](CCN)C(=O)N[C@H]1CCNC(=O)[C@H]([C@@H](C)O)NC(=O)[C@H](CCN)NC(=O)[C@H](CCN)NC(=O)[C@H](CC(C)C)NC(=O)[C@@H](Cc2ccccc2)NC(=O)[C@@H](CCN)NC1=O)[C@H](C)O`, the hemolysis at 1 h, 400 ug/ml was under 10%.
Then `CCCCCCCC(=O)N[C@@H](CCN)C(=O)N[C@H](C(=O)N[C@@H](CCN)C(=O)N[C@H]1CCNC(=O)[C@H]([C@@H](C)O)NC(=O)[C@H](CCN)NC(=O)[C@H](CCN)NC(=O)[C@H](Cc2ccccc2)NC(=O)[C@@H](CCC(C)C)NC(=O)[C@H](CCN)NC1=O)[C@@H](C)O` (Octanoyl-[Dab]T[Dab][Dab][Dab][d(hLeu)]F[Dab][Dab]T; lactam 4-C), with under 10%; and `CCCCCCCC(=O)N[C@@H](CCN)C(=O)N[C@H](C(=O)N[C@@H](CCN)C(=O)N[C@H]1CCNC(=O)[C@H]([C@@H](C)O)NC(=O)[C@H](CCN)NC(=O)[C@H](CCN)NC(=O)[C@H](Cc2ccccc2)NC(=O)[C@@H](CCc2ccccc2)NC(=O)[C@H](CCN)NC1=O)[C@@H](C)O` (Octanoyl-[Dab]T[Dab][Dab][Dab][d(hPhe)]F[Dab][Dab]T; lactam 4-C), with under 10%.
The value for `CCCCCCCC(=O)N[C@@H](CCN)C(=O)N[C@H](C(=O)N[C@@H](CCN)C(=O)N[C@H]1CCNC(=O)[C@H]([C@@H](C)O)NC(=O)[C@H](CCN)NC(=O)[C@H](CCN)NC(=O)[C@H](CC(C)C)NC(=O)[C@@H](CCc2ccccc2)NC(=O)[C@H](CCN)NC1=O)[C@@H](C)O` (Octanoyl-[Dab]T[Dab][Dab][Dab][d(hPhe)]L[Dab][Dab]T; lactam 4-C) was under 10%; that for `CCCCCCCC(=O)N[C@@H](CCN)C(=O)N[C@H](C(=O)N[C@@H](CCN)C(=O)N[C@H]1CCNC(=O)[C@H]([C@@H](C)O)NC(=O)[C@H](CCN)NC(=O)[C@H](CCN)NC(=O)[C@H](Cc2ccccc2)NC(=O)[C@@H](CCCc2ccccc2)NC(=O)[C@H](CCN)NC1=O)[C@@H](C)O` (Octanoyl-[Dab]T[Dab][Dab][Dab][d(hhPhe)]F[Dab][Dab]T; lactam 4-C) was under 10%.
The value for `CCCCCCCC(=O)N[C@@H](CCN)C(=O)N[C@H](C(=O)N[C@@H](CCN)C(=O)N[C@H]1CCNC(=O)[C@H]([C@@H](C)O)NC(=O)[C@H](CCN)NC(=O)[C@H](CCN)NC(=O)[C@H](CC(C)C)NC(=O)[C@@H](CCCc2ccccc2)NC(=O)[C@H](CCN)NC1=O)[C@@H](C)O` (Octanoyl-[Dab]T[Dab][Dab][Dab][d(hhPhe)]L[Dab][Dab]T; lactam 4-C) was under 10%; that for `CCCCCCCC(=O)N[C@@H](CCN)C(=O)N[C@H](C(=O)N[C@@H](CCN)C(=O)N[C@H]1CCNC(=O)[C@H]([C@@H](C)O)NC(=O)[C@H](CCN)NC(=O)[C@H](CCN)NC(=O)[C@H](Cc2ccccc2)NC(=O)[C@@H](CCCCCC)NC(=O)[C@H](CCN)NC1=O)[C@@H](C)O` (Octanoyl-[Dab]T[Dab][Dab][Dab][dAoc(2)]F[Dab][Dab]T; lactam 4-C) was under 10%; that for `CCCCCCCC[C@@H]1NC(=O)[C@@H](Cc2ccccc2)NC(=O)[C@H](CCN)NC(=O)[C@@H](NC(=O)[C@H](CCN)NC(=O)[C@@H](NC(=O)[C@H](CCN)NC(=O)CCCCCCC)[C@@H](C)O)CCNC(=O)[C@H]([C@@H](C)O)NC(=O)[C@H](CCN)NC(=O)[C@H](CCN)NC1=O` (Octanoyl-[Dab]T[Dab][Dab][Dab][dF][Gly(octyl)][Dab][Dab]T; lactam 4-C) was under 10%.
Consider `CCCCCCCC(=O)N[C@@H](CCN)C(=O)N[C@H](C(=O)N[C@@H](CCN)C(=O)N[C@H]1CCNC(=O)[C@H]([C@@H](C)O)NC(=O)[C@H](CCN)NC(=O)[C@H](CCN)NC(=O)[C@H](CCC(C)C)NC(=O)[C@@H](Cc2ccccc2)NC(=O)[C@H](CCN)NC1=O)[C@@H](C)O` (Octanoyl-[Dab]T[Dab][Dab][Dab][dF][hLeu][Dab][Dab]T; lactam 4-C), for which the hemolysis at 1 h, 400 ug/ml is under 10%.
The value for `CCCCCCCC(=O)N[C@@H](CCN)C(=O)N[C@H](C(=O)N[C@@H](CCN)C(=O)N[C@H]1CCNC(=O)[C@H]([C@@H](C)O)NC(=O)[C@H](CCN)NC(=O)[C@H](CCN)NC(=O)[C@H](Cc2ccccc2F)NC(=O)[C@@H](CC(C)C)NC(=O)[C@H](CCN)NC1=O)[C@@H](C)O` (Octanoyl-[Dab]T[Dab][Dab][Dab][dL][Phe(2-F)][Dab][Dab]T; lactam 4-C) was under 10%.
The value for `CCCCCCCC(=O)N[C@@H](CCN)C(=O)N[C@H](C(=O)N[C@@H](CCN)C(=O)N[C@H]1CCNC(=O)[C@H]([C@@H](C)O)NC(=O)[C@H](CCN)NC(=O)[C@H](CCN)NC(=O)[C@H](Cc2cc(F)c(F)c(F)c2)NC(=O)[C@@H](CC(C)C)NC(=O)[C@H](CCN)NC1=O)[C@@H](C)O` (Octanoyl-[Dab]T[Dab][Dab][Dab][dL][Phe(3,4,5-F3)][Dab][Dab]T; lactam 4-C) was under 10%; that for `CCCCCCCC(=O)N[C@@H](CCN)C(=O)N[C@H](C(=O)N[C@@H](CCN)C(=O)N[C@H]1CCNC(=O)[C@H]([C@@H](C)O)NC(=O)[C@H](CCN)NC(=O)[C@H](CCN)NC(=O)[C@H](Cc2cccc(F)c2)NC(=O)[C@@H](CC(C)C)NC(=O)[C@H](CCN)NC1=O)[C@@H](C)O` (Octanoyl-[Dab]T[Dab][Dab][Dab][dL][Phe(3-F)][Dab][Dab]T; lactam 4-C) was under 10%.
Consider `CCCCCCCC(=O)N[C@@H](CCN)C(=O)N[C@H](C(=O)N[C@@H](CCN)C(=O)N[C@H]1CCNC(=O)[C@H]([C@@H](C)O)NC(=O)[C@H](CCN)NC(=O)[C@H](CCN)NC(=O)[C@H](Cc2ccc(Br)cc2)NC(=O)[C@@H](CC(C)C)NC(=O)[C@H](CCN)NC1=O)[C@@H](C)O` (Octanoyl-[Dab]T[Dab][Dab][Dab][dL][Phe(4-Br)][Dab][Dab]T; lactam 4-C), for which the hemolysis at 1 h, 400 ug/ml is under 10%.
For the compound `CCCCCCCC(=O)N[C@@H](CCN)C(=O)N[C@H](C(=O)N[C@@H](CCN)C(=O)N[C@H]1CCNC(=O)[C@H]([C@@H](C)O)NC(=O)[C@H](CCN)NC(=O)[C@H](CCN)NC(=O)[C@H](Cc2ccc(C(F)(F)F)cc2)NC(=O)[C@@H](CC(C)C)NC(=O)[C@H](CCN)NC1=O)[C@@H](C)O` (Octanoyl-[Dab]T[Dab][Dab][Dab][dL][Phe(4-CF3)][Dab][Dab]T; lactam 4-C), the hemolysis at 1 h, 400 ug/ml is under 10%.
Then `CCCCCCCC(=O)N[C@@H](CCN)C(=O)N[C@H](C(=O)N[C@@H](CCN)C(=O)N[C@H]1CCNC(=O)[C@H]([C@@H](C)O)NC(=O)[C@H](CCN)NC(=O)[C@H](CCN)NC(=O)[C@H](Cc2ccc(Cl)cc2)NC(=O)[C@@H](CC(C)C)NC(=O)[C@H](CCN)NC1=O)[C@@H](C)O` (Octanoyl-[Dab]T[Dab][Dab][Dab][dL][Phe(4-Cl)][Dab][Dab]T; lactam 4-C), with under 10%; and `CCCCCCCC(=O)N[C@@H](CCN)C(=O)N[C@H](C(=O)N[C@@H](CCN)C(=O)N[C@H]1CCNC(=O)[C@H]([C@@H](C)O)NC(=O)[C@H](CCN)NC(=O)[C@H](CCN)NC(=O)[C@H](Cc2ccc(F)cc2)NC(=O)[C@@H](CC(C)C)NC(=O)[C@H](CCN)NC1=O)[C@@H](C)O` (Octanoyl-[Dab]T[Dab][Dab][Dab][dL][Phe(4-F)][Dab][Dab]T; lactam 4-C), with under 10%.
Take `CCCCCCCC(=O)N[C@@H](CCN)C(=O)N[C@H](C(=O)N[C@@H](CCN)C(=O)N[C@H]1CCNC(=O)[C@H]([C@@H](C)O)NC(=O)[C@H](CCN)NC(=O)[C@H](CCN)NC(=O)[C@H](CCc2ccccc2)NC(=O)[C@@H](CC(C)C)NC(=O)[C@H](CCN)NC1=O)[C@@H](C)O` (Octanoyl-[Dab]T[Dab][Dab][Dab][dL][hPhe][Dab][Dab]T; lactam 4-C): the hemolysis at 1 h, 400 ug/ml is under 10%.
The value for `CCCCCCCC(=O)N[C@@H](CCN)C(=O)N[C@H](C(=O)N[C@@H](CCN)C(=O)N[C@H]1CCNC(=O)[C@H]([C@@H](C)O)NC(=O)[C@H](CCN)NC(=O)[C@H](CCN)NC(=O)[C@H](CCCc2ccccc2)NC(=O)[C@@H](CC(C)C)NC(=O)[C@H](CCN)NC1=O)[C@@H](C)O` (Octanoyl-[Dab]T[Dab][Dab][Dab][dL][hhPhe][Dab][Dab]T; lactam 4-C) was under 10%; that for `CCCCCCCC(=O)N[C@@H](CCN)C(=O)N[C@H](C(=O)N[C@@H](CCN)C(=O)N[C@H]1CCNC(=O)[C@H]([C@@H](C)O)NC(=O)[C@H](CCN)NC(=O)[C@H](CCN)NC(=O)[C@H](CC(C)C)NC(=O)[C@@H](Cc2ccccc2F)NC(=O)[C@H](CCN)NC1=O)[C@@H](C)O` (Octanoyl-[Dab]T[Dab][Dab][Dab][dPhe(2-F)]L[Dab][Dab]T; lactam 4-C) was under 10%.
On to `CCCCCCCC(=O)N[C@@H](CCN)C(=O)N[C@H](C(=O)N[C@@H](CCN)C(=O)N[C@H]1CCNC(=O)[C@H]([C@@H](C)O)NC(=O)[C@H](CCN)NC(=O)[C@H](CCN)NC(=O)[C@H](CC(C)C)NC(=O)[C@@H](Cc2cc(F)c(F)c(F)c2)NC(=O)[C@H](CCN)NC1=O)[C@@H](C)O` (Octanoyl-[Dab]T[Dab][Dab][Dab][dPhe(3,4,5-F3)]L[Dab][Dab]T; lactam 4-C), for which the hemolysis at 1 h, 400 ug/ml is under 10%.
